Experimental data from patent US20150133666A1, “TRITOQUALINE FOR USE IN THE TREATMENT OF CYSTIC FIBROSIS” (priority 2012, published 2015).

How the values were obtained:
cystic fibrosis patients = conditions: background statement; cited from earlier work
cystic fibrosis patient [1] = assay: FEV1 (Forced Expiratory Volume in 1 second) in patients with cystic fibrosis treated with tritoqualine; type: in vivo, human
Description: During the initial consultation, a treatment based on tritoqualine was started at a daily dose of 200 mg.
Before therapy with tritoqualine, the FEV1 (Forced Expiratory Volume in 1 second) of this young patient was 0.39 L/s or 55.71% of the normal expected value (based on age, sex, and size). The flow rate was measured with a Jaeger® MasterScreen® Body plethysmography apparatus.
(§1) This level of ventilatory flow signals a severe respiratory impairment. This patient also had 15 lung infections per year prior to treatment. After 6 months of treatment with tritoqualine at a dose of 200 mg/day, the ventilatory flows were again measured. At this second visit, the FEV1 parameter was measured at 0.50 L/s. […] During the third visit, months after the first visit, the flows were again measured.
Before therapy with tritoqualine, the FEV1 of the patient was measured at 0.45 L/s or only 69.23% of the normal expected value (based on age, sex, and size).
(§2) This patient had had 8 lung infections per year prior to treatment. After 6 months of treatment at the daily dose of 400 mg of tritoqualine, the FEV1 parameter was measured again during a second consultation. The FEV1 parameter measured during this consultation went from 0.45 L/s to 0.50 L/s, or an improvement of 11.11% of the ventilatory flows.
A child with cystic fibrosis was treated during their first consultation with a dose of 300 mg of tritoqualine.
(§3) Before therapy with tritoqualine, the FEV1 of the patient was measured at 0.70 L/s, or 63.64% of the normal expected value (based on age, sex, and size). This patient had had 12 pulmonary infections per year before the treatment. After a 6-month treatment with a daily dose of 300 mg of tritoqualine, the FEV1 parameter was measured at their second consultation at 1.0 L/s. This represents an improvement of 42.86% over the initial visit. (100*([…])/0.70). After 12 months of treatment, the FEV1 parameter measured during the third consultation was 1.20 L/s or 71.43% improvement compared to the initial visit. (100*(1.20-0.70)/0.70).

[2] = white powder; degrades into cotarnine and phthalic acid; cited from earlier work
cystic fibrosis patient [3] = assay: Number of lung infections (superinfections) per year in patients with cystic fibrosis treated with tritoqualine; type: in vivo, human
Description: as §1
Over 12 months, the number of superinfections decreased from 15 to only 4 infections.
as §2
During the 12-month treatment with tritoqualine (400 mg daily), the patient benefited from a significant reduction in pulmonary infections, from 8 initially to only 3 infections after 12 months of treatment.
as §3
These decreased from 12 to 3 infections in one single year.

histidine decarboxylase = biological target: T1, histidine decarboxylase (Homo sapiens, UniProt P19113); conditions: background statement; cited from earlier work
T1 sequence (P19113 1-662): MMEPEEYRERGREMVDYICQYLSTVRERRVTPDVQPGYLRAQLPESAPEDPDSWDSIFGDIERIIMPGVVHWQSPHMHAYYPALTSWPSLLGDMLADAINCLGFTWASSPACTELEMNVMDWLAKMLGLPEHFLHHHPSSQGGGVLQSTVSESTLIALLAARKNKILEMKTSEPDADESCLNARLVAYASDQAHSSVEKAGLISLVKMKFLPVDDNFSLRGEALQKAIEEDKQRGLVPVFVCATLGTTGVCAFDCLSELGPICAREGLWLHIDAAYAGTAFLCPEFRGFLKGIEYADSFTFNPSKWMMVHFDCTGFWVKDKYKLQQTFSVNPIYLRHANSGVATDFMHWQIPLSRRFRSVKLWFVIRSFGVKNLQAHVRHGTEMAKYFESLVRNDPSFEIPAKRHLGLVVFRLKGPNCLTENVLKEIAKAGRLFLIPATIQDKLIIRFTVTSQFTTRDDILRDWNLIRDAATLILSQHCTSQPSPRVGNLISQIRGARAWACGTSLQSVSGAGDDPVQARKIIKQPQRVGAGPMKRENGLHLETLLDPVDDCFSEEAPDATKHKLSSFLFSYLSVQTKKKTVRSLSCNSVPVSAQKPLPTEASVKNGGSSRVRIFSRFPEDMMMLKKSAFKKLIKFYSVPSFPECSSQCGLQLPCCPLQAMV

histamine H4 receptor = biological target: T2, histamine H4 receptor (Homo sapiens, UniProt Q9H3N8); assay: Inhibition of proliferation of CFU rich in H4 receptor (FIG. 4); type: cell-based; conditions: for activity on CFU proliferation when using an anti H4: FIG. 4, with an anti H4
T2 construct: endogenous in cells; host or cells: CFU (colony-forming units) rich in H4 receptor
T2 sequence (Q9H3N8 whole entry, species assumed): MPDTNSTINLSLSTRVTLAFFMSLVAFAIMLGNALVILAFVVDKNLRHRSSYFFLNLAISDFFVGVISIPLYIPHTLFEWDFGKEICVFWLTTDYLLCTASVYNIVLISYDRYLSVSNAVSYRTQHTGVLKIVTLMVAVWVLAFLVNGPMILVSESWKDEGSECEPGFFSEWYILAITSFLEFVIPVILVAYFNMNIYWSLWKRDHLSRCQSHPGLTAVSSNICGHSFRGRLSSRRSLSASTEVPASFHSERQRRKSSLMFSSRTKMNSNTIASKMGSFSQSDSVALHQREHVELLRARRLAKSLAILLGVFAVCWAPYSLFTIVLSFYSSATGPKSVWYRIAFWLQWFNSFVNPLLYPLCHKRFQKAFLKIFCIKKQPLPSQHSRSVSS

## CC(C)(C)c1cc(C(C)(C)C)c(NC(=O)c2c[nH]c3ccccc3c2=O)cc1O [Kalydeco]
Cystic fibrosis patients
  improvement in FEV1: 10%

## CCOc1c(N)c2c(c(OCC)c1OCC)C(C1c3c(cc4c(c3OC)OCO4)CCN1C)OC2=O (centres unmarked) [tritoqualine, 7-Amino-4,5,6-triethoxy-3-(5,6,7,8-tetrahydro-4-methoxy-6-methyl-1,3-dioxolo[4,5-g]isoquinolin-5-yl) phthalide]
Cystic fibrosis patient [1]; Example 1: child, 200 mg/day, after 6 months
  increase of FEV1 compared to initial flows: 28.2%
Cystic fibrosis patient [1]; Example 1: child, 200 mg/day, after 6 months (second visit), before therapy 0.39 L/s
  FEV1: 0.50 L/s
Cystic fibrosis patient [1]; Example 1: child, 200 mg/day, third visit
  improvement of FEV1 compared to initial rates: 58.7%
Cystic fibrosis patient [1]; Example 1: child, 200 mg/day, third visit, before therapy 0.39 L/s
  FEV1: 0.62 L/s
Cystic fibrosis patient [1]; Example 1: summary statement
  increase of ventilatory flows: more than 50%
Cystic fibrosis patient [1]; Example 2: adult, 400 mg/day, after 6 months vs baseline
  improvement of ventilatory flows (FEV1): 11.11%
Cystic fibrosis patient [1]; Example 2: adult, 400 mg/day, after 6 months, before therapy 0.45 L/s
  FEV1: 0.50 L/s
Cystic fibrosis patient [1]; Example 2: adult, 400 mg/day, after 12 months
  increase in FEV1 compared to the initial visit: 28.89%
Cystic fibrosis patient [1]; Example 2: adult, 400 mg/day, after 12 months, before therapy 0.45 L/s
  FEV1: 0.58 L/s
Cystic fibrosis patient [1]; Example 3: child, 300 mg/day, after 6 months
  improvement of FEV1 over the initial visit: 42.86%
Cystic fibrosis patient [1]; Example 3: child, 300 mg/day, after 6 months, before therapy 0.70 L/s
  FEV1: 1.0 L/s
Cystic fibrosis patient [1]; Example 3: child, 300 mg/day, after 12 months
  improvement of FEV1 compared to the initial visit: 71.43%
Cystic fibrosis patient [1]; Example 3: child, 300 mg/day, after 12 months, before therapy 0.70 L/s
  FEV1: 1.20 L/s
[2]
  sensitivity to light: very sensitive to light
Cystic fibrosis patient [3]; Example 1: child, 200 mg/day, over 12 months, 15 per year prior to treatment
  number of superinfections: 4 infections
Cystic fibrosis patient [3]; Example 1: summary statement
  reduction factor of number of infections: divided by three
Cystic fibrosis patient [3]; Example 2: adult, 400 mg/day, after 12 months, 8 initially
  number of pulmonary infections: 3 infections
Cystic fibrosis patient [3]; Example 3: child, 300 mg/day, in one year, 12 before treatment
  number of pulmonary infections: 3 infections
Histidine decarboxylase
  inhibitory action on histidine decarboxylase: very low
Histamine H4 receptor; FIG. 4
  proliferation of CFU rich in H4 receptor: capable of inhibiting the proliferation
Histamine H4 receptor
  activity on CFU proliferation when using an anti H4: greatly reduced

## NC(=NCc1ccc(Cl)cc1)SCCCc1cnc[nH]1 [Clobenpropit]
Histamine H4 receptor
  activity on CFU proliferation when using an anti H4: greatly reduced
